From US4845122A, “Anti-allergy treatment using 2-(substituted amino)-4,5-dihydro-4-oxo-3-furancarboxylic acids and derivatives thereof” (priority 1986, dated 1989)

What was measured:
Type in all cases: in vivo
[1] = test system: histamine; assay: rat dermal vascular permeability test (mediator release model), histamine challenge; details: 100 mg/kg, histamine 20 ug/ml intradermal
Method: The furanone compounds listed in Tables 1A, 1B and 2 were used for anti-allergy treatment in the rat active anaphylaxis model and/or the rat dermal vascular permeability test (mediator release model). The results are given as the percent inhibition from the control.
In the rat dermal vascular permeability test, groups of ten male rats are intraperitoneally or perorally administered either the test compound, at a dosage of 100 mg/kg of rat weight as a 0.85% solution in saline, or the positive reference standard cyproheptadine (1 mg/kg) one hour prior to an intravenous injection of 1 ml of a 0.5% solution of Evan's blue dye into naive animals. Ten minutes later the animals are challenged by intradermally injecting 0.1 ml of a solution of either serotonin (1 ug/ml), histamine (20 ug/ml) or bradykinin (10 ug/ml) into separate sites on the back. Five minutes following challenge the animals are killed, the skin retracted, and the mean diameter of the blue wheal and flare reactions are determined. The percent inhibition of the wheal reaction is calculated as the difference in diameter between the saline control and drug treated groups divided by the control diameter times 100. Statistical analysis of the data is done using the poolt program.

[2] = test system: serotonin; assay: rat dermal vascular permeability test (mediator release model), serotonin challenge; details: 100 mg/kg
[3] = test system: edema; assay: rat active anaphylaxis model (paw edema after bovine serum albumin challenge); details: 100 mg/kg intraperitoneally; for Active Anaphylaxis % Inhibition: 1 h before challenge, paw volume 90 min post challenge
Method: In the rat active anaphylaxis model, groups consisting of 15-20 male rats are intraperitoneally sensitized on day zero with 500 ug of bovine serum albumin-absorbed alum admixed with 2×10^10 killed Bordatella pertussis vaccine organisms. […] The paw volume is measured using a mercury plethysmometer prior to drug administration and 90 minutes post antigenic challenge. The percent inhibition of edema is calculated as the difference in volume between the control and drug treated groups divided by the control volume times 100. The positive control drug, theophylline (90 mg/kg, po) is included in each assay. Statistical analysis of the data is done using the poolt program.

[4] = test system: bradykinin; assay: rat dermal vascular permeability test (mediator release model), bradykinin challenge; details: 100 mg/kg
[5] = test system: histamine; assay: rat dermal vascular permeability test (mediator release model), histamine challenge; details: topical, 100 mg/kg
[6] = intraperitoneal administration, serotonin 1 ug/ml intradermal
[7] = intraperitoneal administration, bradykinin 10 ug/ml intradermal
[8] = peroral, serotonin 1 ug/ml intradermal

| SMILES | Active Anaphylaxis % Inhibition [3] [%] | % Inhibition of Mediator Release, Histamine ([1]; peroral) [%] | % Inhibition of Mediator Release, Serotonin [2, 8] [%] | % Inhibition of Mediator Release, Bradykinin ([4]; topical) [%] | also measured |
| --- | --- | --- | --- | --- | --- |
| CCOC(=O)C1=C(O)COC1=Nc1ccc(Br)cc1 [K C6 H4 Br--4 C2 H5] | 38 |  |  |  | % Inhibition of Mediator Release, Histamine ([1]; intraperitoneal administration): 65%; % Inhibition of Mediator Release, Serotonin [2, 6]: 46%; % Inhibition of Mediator Release, Bradykinin [4, 7]: 69% |
| O=C([O-])C1=C(Nc2ccccc2)OCC1=O.[Na+] [O^- Na^+ H H C6 H5, 4,5-dihydro-4-oxo-2-phenylamino-3-furancarboxylic acid sodium salt] | 17 |  |  |  |  |
| CCOC(=O)C1=C(O)COC1=Nc1ccc(C(C)=O)cc1 [K C6 H4 COCH3 --4 C2 H5] | 56 |  |  |  | % Inhibition of Mediator Release, Histamine ([1]; intraperitoneal administration): 88%; % Inhibition of Mediator Release, Serotonin [2, 6]: 79%; % Inhibition of Mediator Release, Bradykinin [4, 7]: 86% |
| CCOC(=O)C1=C(N[C@@H]2C[C@H]2c2ccc(Cl)cc2)OCC1=O (relative stereo) |  | 60 | 51 | 76 |  |
| COc1ccc(NC(=O)C2=C(Nc3ccc(OC)cc3)OCC2=O)cc1 [NH6 H4 OCH3 4 H H C6 H4 OCH3 4] |  |  |  | 39 | % Inhibition of Mediator Release, Serotonin ([2]; topical): 13%; % Inhibition of Mediator Release, Histamine [5]: 8% |
| CCOC(=O)C1=C(O)COC1=Nc1cccc([N+](=O)[O-])c1 [K C6 H4 NO2 --3 C2 H5] | 37 |  |  |  | % Inhibition of Mediator Release, Histamine ([1]; intraperitoneal administration): 49%; % Inhibition of Mediator Release, Serotonin [2, 6]: 45%; % Inhibition of Mediator Release, Bradykinin [4, 7]: 67% |
| O=C(O)C1=C(N[C@@H]2C[C@H]2c2ccccc2)OCC1=O (relative stereo) | 22 |  |  |  |  |
| CCOC(=O)C1=C(O)COC1=Nc1ccccc1OC [K C6 H4 OCH3 --2 C2 H5] | 58 |  |  |  |  |
| Cc1ccccc1NC(=O)C1=C(Nc2ccccc2C)OCC1=O [NHC6 H4 CH3 2 H H C6 H4 CH3 2] |  | 0 | 9 | 7 |  |
| O=C1COC(Nc2ccccc2)=C1C(=O)Nc1ccccc1 [NHC6 H5 H H C6 H5, 4,5-Dihydro-4-oxo-N-phenyl-2-(phenylamino)-3-furancarboxamide] | 46 |  |  |  |  |
| CC1OC(Nc2ccccc2)=C(C(=O)O)C1=O (stereo not drawn) [OH H CH3 C6 H5] | 60 |  |  |  | % Inhibition of Mediator Release, Histamine ([1]; intraperitoneal administration): 40%; % Inhibition of Mediator Release, Serotonin [2, 6]: 37%; % Inhibition of Mediator Release, Bradykinin [4, 7]: 46% |
| O=C(O)C1=C(N[C@@H]2C[C@H]2c2ccc(Cl)cc2)OCC1=O (relative stereo) | 6 | 56 | 54 | 71 |  |
| O=C(O)C1=C(Nc2cccc([N+](=O)[O-])c2)OCC1=O [OH H H C6 H4 NO2 --3] |  | 16 | 18 | 48 | Active Anaphylaxis % Inhibition (footnote 1: edema increased) ([3]; edema increased): 39% |
| COc1ccccc1NC(=O)C1=C(Nc2ccccc2OC)OCC1=O [NHC6 H4 OCH3 2 H H C6 H4 OCH3 2] |  | 1 | 18 | 39 |  |
| COc1ccccc1NC1=C(C(=O)O)C(=O)CO1 [OH H H C6 H4 OCH3 --2] | 45 | 27 | 30 | 38 |  |
| CCOC(=O)C1=C(Nc2ccc(Cl)cc2)OCC1=O [OC2 H5 H H C6 H4 Cl--4] |  | 3.3 | 6.6 | 9.5 |  |
| CCOC(=O)C1=C(NC)OCC1=O [OC2 H5 H H CH3] |  |  |  |  | % Inhibition of Mediator Release, Histamine ([1]; intraperitoneal administration): 50%; % Inhibition of Mediator Release, Serotonin [2, 6]: 38%; % Inhibition of Mediator Release, Bradykinin [4, 7]: 25% |
| CC1(C)OC(Nc2ccccc2)=C(C(=O)O)C1=O [OH CH3 CH3 C6 H5] | 44 |  |  |  |  |
| O=C1COC(Nc2ccc(Cl)cc2)=C1C(=O)Nc1ccc(Cl)cc1 [NHC6 H4 Cl4 H H C6 H4 Cl4] |  | 15 | 14 | 44 |  |
| CCOC(=O)C1=C(O)COC1=Nc1cccc(C)c1 [K C6 H4 CH3 --3 C2 H5] |  |  |  |  | % Inhibition of Mediator Release, Histamine ([1]; intraperitoneal administration): 71%; % Inhibition of Mediator Release, Serotonin [2, 6]: 75%; % Inhibition of Mediator Release, Bradykinin [4, 7]: 70% |
| Cc1ccc([C@@H]2C[C@H]2NC2=C(C(=O)O)C(=O)CO2)cc1 (relative stereo) | 45 | 100 | 100 | 100 |  |
| CCOC(=O)C1=C(Nc2ccccc2)OC(C)(C)C1=O [OC2 H5 CH3 CH3 C6 H5, ethyl 4,5-dihydro-5,5-dimethyl-4-oxo-2-(phenylamino)-3-furancarboxylate] | 16 |  |  |  |  |
| O=C(O)C1=C(Nc2ccc(Br)cc2)OCC1=O [OH H H C6 H4 Br--4] | 27 | 45 | 39 | 68 |  |
| O=C(O)C1=C(Nc2ccc(C(=O)O)cc2)OCC1=O [OH H H C6 H4 CO2 H--4, 2-[(4-Carboxyphenyl)amino]-4,5-dihydro-4-oxo-3-furancarboxylic Acid] | 52 | 64 | 63 | 64 |  |
| CCOC(=O)C1=C(N[C@@H]2C[C@H]2c2ccccc2)OCC1=O (relative stereo) |  | 35 | 57 | 59 |  |
| CCOC(=O)C1=C(Nc2cccc(C(F)(F)F)c2)OCC1=O [OC2 H5 H H C6 H4 CF3 --3] |  | 4.1 | 9.7 | 40 |  |
| CCOC(=O)C1=C(O)COC1=Nc1ccccc1 [K C6 H5 C2 H5, Potassium 2,5-dihydro-3-ethoxycarbonyl-2-(phenylimino)-4-furanyloxide] | 49 |  |  |  | % Inhibition of Mediator Release, Histamine ([1]; intraperitoneal administration): 31%; % Inhibition of Mediator Release, Serotonin [2, 6]: 42%; % Inhibition of Mediator Release, Bradykinin [4, 7]: 51% |
| O=C(O)C1=C(Nc2cccc(C(F)(F)F)c2)OCC1=O [OH H H C6 H4 CF3 --3] | 45 | 26 | 40 | 54 |  |
| CCOC(=O)C1=C(Nc2ccc(C(=O)OCC)cc2)OCC1=O [OC2 H5 H H C6 H4 CO2 C2 H5 --4, ethyl 2-[[4-(ethoxycarbonyl)phenyl]-amino]-4,5-dihydro-4-oxo-3-furancarboxylate] |  | 21 | 18 | 21 |  |
